Several values for one entry are separate records, joined by “and”; a condition that tells them apart may be missing. Equal values may be shown once. Entries after “also recorded” stand apart in the source; their conditions may differ. Read-outs that look alike come from different tables or passages of the source.
Key:
[1] = test system: imiquimod (IMQ) PsO murine model; assay: Imiquimod (IMQ) PsO murine model with topical inhibitor treatment; type: in vivo, mouse; details: for cutaneous Type 17 immunity: interventional treatment after establishment of inflammation at day 3 of IMQ; for Type 17 cytokines (Il17a, Il22, Il23a, Il1b, Tnfa): topical during the course of IMQ treatment; for cutaneous T cell numbers (dermal CD3+ cells) / epithelial (epidermal) thickness: topical from first day, during the course of IMQ treatment; for cutaneous T cell numbers (dermal CD3+ cells) / epithelial (epidermal) thickness / dermal CD3+ cells: vs vehicle; for epidermal thickness / dermal CD3+ cells: treatment begins on day 3 of IMQ application; for epidermal thickness: up to day 6, vs vehicle
Procedure: Murine models of psoriatic inflammation. Topical imiquimod application: For imiquimod studies, seven- to eight-week-old mice in telogen (resting phase of hair cycle) were anesthetized with isoflurane prior to hair removal and imiquimod treatment on dorsal skin. 50 mg of imiquimod cream (5%, Perrigo) was applied to shaved dorsal skin, and application was repeated up to six days as previously described (van der Fits et al., 2009). Intradermal rmIL-23 injection: For recombinant murine (rm) IL-23 studies, the ear pinnae in 8-week-old mice were intradermally injected with either rmIL-23 (500 ng in 20 μl of PBS, carrier-free, PeproTech) or PBS control for five days. Animal drug treatments. […] Murine skin immunofluorescence and image analyses. […] Nuclei were stained with DAPI. […] Data were analyzed using ImageJ software.

uninflamed skin = details: topical on uninflamed skin for six days
Procedure: To examine if HIF1α is sufficient to promote epithelial pathology in the absence of inflammation, a HIF1α activator, FG-4592, was used (Wu et al., 2016). […] Animal drug treatments. EdU pulse: Mice were injected intraperitoneally with EdU (50 μg/g) (Thermo Scientific) three hours prior to sacrifice. PIM HCl: Pimonidazole Hydrochloride (PIM HCl, hypoxyprobe) was injected intraperitoneally into mice (20 mg/kg) two hours prior to sacrifice. BAY 87-2243: BAY 87-2243 (2 mg/ml, Selleck Chemicals) was first dissolved in DMSO and then diluted in a water-based gel. This gel was topically applied to dorsal skin daily starting two days prior to imiquimod application and continuing in parallel with imiquimod application until analysis. Sodium Oxamate: Sodium oxamate (70 mg/ml, Cayman Chemicals) was first dissolved in H2O and then diluted in a water-based gel. This gel was topically applied to dorsal skin daily starting either on the first or fourth day of imiquimod application and continuing in parallel with imiquimod application until analysis. Syrosingopine: Syrosingopine (10 mg/ml, Cayman Chemicals) was first dissolved in DMSO and then diluted in a water-based gel. […] Sections were blocked and stained with primary and secondary fluorescence-conjugated antibody. […] Pimonidazole Hydrochloride (PIM HCl) was detected by pretreating slides with a mouse-on-mouse immunodetection kit (Vector Laboratories) and then staining with biotin-anti-PIM adduct antibodies as per the manufacturer's guidelines (Hypoxyprobe). Data were analyzed using ImageJ software. Epidermal thickness was quantified by measuring K14^+ thickness with an in-house ImageJ macro. Thickness of keratin 6 (K6) and glucose transporter 1 (Glut1) layer was quantified by measuring K6^+K14^+ and Glut1^+K14^+ thickness with an ImageJ macro. The number of CD3 and EdU positive cells was quantified using ImageJ software and normalized per dermis area and length of epidermis, respectively.

PsO patients = assay: Clinical metrics of PsO patients over course of etanercept (anti-TNFα) therapy; type: in vivo, human; design: BSA: unit not given here
Procedure: (§1) When compared to contralateral non-lesional skin, the PsO lesion was enriched for HIF1A, IL17RA, and IL17RC (FIGS. 3B and 8H). […] As a complementary analysis, HIF1α protein expression was measured in a cohort of 10 patients treated with etanercept (anti-TNFα) that achieved response (PASI 75 or greater) at 12 weeks (Table 2) (Stinco et al., 2019). […] Collectively, these analyses make a compelling argument for exuberant IL-17A signaling and subsequent HIF1α induction in fueling a pathological epithelial state that is resolved following successful biologic therapy, irrespective of cytokine target.

epidermal HIF1α = assay: Immunofluorescence of PsO lesions before and after etanercept; type: in vivo, human; details: n=10
Procedure: as §1
Human skin immunofluorescence and image analyses. Four-micron paraffin-embedded sections were stained either with hematoxylin and eosin or with Akoya Biosciences® Opal™ multiplex automation kit on a Leica BondRX® autostainer, according to manufacturers' instructions. Semi-automated image acquisition was performed on a Vectra® Polaris multispectral imaging system. After whole slide scanning at 20× the tissue was manually outlined to select fields for spectral unmixing using InForm® version 2.4.11 software from Akoya Biosciences.

[2] = Week 2 of etanercept, one line per individual patient
[3] = Week 6 of etanercept, one line per individual patient
[4] = Week 12 of etanercept, one line per individual patient

CCOC(=O)Oc1c(OC)cc(C(=O)O[C@@H]2C[C@@H]3CN4CCc5c([nH]c6cc(OC)ccc56)[C@H]4C[C@@H]3[C@H](C(=O)OC)[C@H]2OC)cc1OC [syrosingopine]
cutaneous Type 17 immunity [1]: decrease
Type 17 cytokines (Il17a, Il22, Il23a, Il1b, Tnfa) [1]: sufficient to limit
cutaneous T cell numbers (dermal CD3+ cells) [1]: sufficient to limit
epithelial (epidermal) thickness [1]: sufficient to limit
cutaneous T cell numbers (dermal CD3+ cells) ([1]; listed as MCT1/MCT4 inhibitor): diminished
epithelial (epidermal) thickness ([1]; listed as MCT1/MCT4 inhibitor): diminished
epidermal thickness [1]: decrease
dermal CD3+ cells ([1]; listed as MCT1/MCT4 inhibitor): diminished

Cc1nc(C(=O)NCC(=O)O)c(O)c2ccc(Oc3ccccc3)cc12 [FG-4592]
epidermal HIF1α levels (K14+HIF1α+ cells) (uninflamed skin): effectively heightened
epidermal HIF1α levels (K14+HIF1α+ cells) (uninflamed skin; listed as FG-4985): increased

NC(=O)C(=O)[O-].[Na+] [sodium oxamate]
cutaneous Type 17 immunity [1]: decrease
Type 17 cytokines (Il17a, Il22, Il23a, Il1b, Tnfa) [1]: sufficient to limit
cutaneous T cell numbers (dermal CD3+ cells) [1]: diminished; also recorded: sufficient to limit
epithelial (epidermal) thickness [1]: diminished; also recorded: sufficient to limit
epidermal thickness [1]: decrease
dermal CD3+ cells [1]: diminished

etanercept
BSA (PsO patients; [2]): 9 and 22 and 15 (2×) and 11 and 12 and 76 and 29 and 19 and 20
Static Physician's Global Assessment (SPGA) (PsO patients; [2]): 3 (6×) and 2 (2×) and 4 (2×)
PASI (PsO patients; Week 2 of etanercept, one line per individual patient (Patient 28-40)): 9.5 and 3.9 and 8.1 and 9.4 and 14.3 and 31.5 and 17.4 and 18.8 and 10.7 and 10.8
BSA (PsO patients; [3]): 8 (2×) and 4 and 15 and 11 and 39 and 25 and 13 and 18 and 16
PASI (PsO patients; [3]): 7.4 and 2.7 and 4.8 and 8.4 and 4.4 and 15 and 6.6 and 12.3 and 8.2 and 4.5
Static Physician's Global Assessment (SPGA) (PsO patients; [3]): 3 (3×) and 1 and 2 (6×)
BSA (PsO patients; [4]): 6 and 3 (2×) and 10 and 15 and 27 and 1 and 7 and 18 and 8
PASI (PsO patients; [4]): 4.5 (2×) and 2.7 and 2.4 and 11.6 and 3.2 and 12 and 0 and 2 and 8.4
Static Physician's Global Assessment (SPGA) (PsO patients; [4]): 2 (4×) and 1 (4×) and 3 (2×)
PASI response achieved (PsO patients; cohort of 10 patients, at 12 weeks): ≥ 75
cutaneous Type 17 cells (epidermal HIF1α; etanercept responsive patients): reduction
epidermal hyperplasia (epidermal thickness) (epidermal HIF1α; etanercept-responsive patients, post-treated vs pre-treated lesional skin): reduced epidermal hyperplasia
expression of (nuclear) epidermal HIF1α (epidermal HIF1α; post-treated vs pre-treated lesional PsO epidermis, responsive patients): lower expression; also recorded: reduced
